Measurements: PubChem BioAssay AID330 (DTP/NCI, 2004)
Values joined by “and” are separate entries in the source; they are usually repeats but may differ in a detail not shown here. Equal values may be shown once. Inconclusive results and toxic doses are left out. Rule for the calls: active = survival T/C of 150% or more; inactive = T/C below 125% in these data.

System: P388 leukemia ip, CD2F1 mice, survival T/C
Test: NCI In Vivo Anticancer Drug Screen. Data for tumor model P388 Leukemia (intraperitoneal) in CD2F1 (CDF1) mice
Settings: endpoint: median survival time, higher = longer survival
Method in brief: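 Mice carrying the transplanted tumor received test compound or vehicle. Survival was recorded in each group, and the value is the treated-group measurement divided by that of the vehicle-treated control group.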

[1] = dose: 50.0 mg/kg/injection, schedule: Q01DX005 (ip), vehicle: saline with Tween-80
[2] = dose: 100.0 mg/kg/injection, schedule: Q01DX005 (ip), vehicle: saline with Tween-80
[3] = dose: 200.0 mg/kg/injection, schedule: Q01DX005 (ip), vehicle: saline with Tween-80
[4] = dose: 50.0 mg/kg/injection, schedule: Q01DX009 (ip), vehicle: Klucel (hydroxypropylcellulose) (HPC)
[5] = dose: 100.0 mg/kg/injection, schedule: Q01DX009 (ip), vehicle: Klucel (hydroxypropylcellulose) (HPC)
[6] = dose: 200.0 mg/kg/injection, schedule: Q01DX009 (ip), vehicle: Klucel (hydroxypropylcellulose) (HPC)
[7] = dose: 60.0 mg/kg/injection, schedule: Q01DX005 (ip), vehicle: saline with Tween-80
[8] = dose: 120.0 mg/kg/injection, schedule: Q01DX005 (ip), vehicle: saline with Tween-80
[9] = dose: 240.0 mg/kg/injection, schedule: Q01DX005 (ip), vehicle: saline with Tween-80
[10] = dose: 50.0 mg/kg/injection, schedule: Q01DX005 (ip), vehicle: Klucel (hydroxypropylcellulose) (HPC)
[11] = dose: 100.0 mg/kg/injection, schedule: Q01DX005 (ip), vehicle: Klucel (hydroxypropylcellulose) (HPC)
[12] = dose: 200.0 mg/kg/injection, schedule: Q01DX005 (ip), vehicle: Klucel (hydroxypropylcellulose) (HPC)
[13] = dose: 100.0 mg/kg/injection, schedule: Q01DX001 (ip), vehicle: Klucel (hydroxypropylcellulose) (HPC)
[14] = dose: 200.0 mg/kg/injection, schedule: Q01DX001 (ip), vehicle: Klucel (hydroxypropylcellulose) (HPC)
[15] = dose: 100.0 mg/kg/injection, schedule: Q04DX002 (ip), vehicle: saline
[16] = dose: 200.0 mg/kg/injection, schedule: Q04DX002 (ip), vehicle: saline
[17] = dose: 400.0 mg/kg/injection, schedule: Q04DX002 (ip), vehicle: saline
[18] = dose: 6.25 mg/kg/injection, schedule: Q01DX009 (ip), vehicle: saline with Tween-80
[19] = dose: 12.5 mg/kg/injection, schedule: Q01DX009 (ip), vehicle: saline with Tween-80
[20] = dose: 25.0 mg/kg/injection, schedule: Q01DX009 (ip), vehicle: saline with Tween-80

Measured: T/C

NS(=O)(=O)c1ccc(Nc2c3ccc(Cl)cc3nc3ncccc23)cc1
inactive: [1] 108 % of control | [2] 101 % of control | [3] 94 % of control

Cc1ccc(S(=O)(=O)N(C)c2ccc(Cl)cc2C2=NCCc3ccccc32)cc1
inactive: [4] 100 % of control | [5] 101 % of control | [6] 101 % of control

COc1cc2c(cc1OC)CN1CCc3cc(OC)c(OC)cc3C1C2 (stereo unspecified)
inactive: [1] 99 % of control | [2] 94 % of control | [3] 91 % of control

CCc1ccc(/C=C/c2ccc(O)c3ncccc23)[n+](C)c1
inactive: dose: 4.0 mg/kg/injection, schedule: Q04DX003 (ip), vehicle: saline 100 % of control | dose: 8.0 mg/kg/injection, schedule: Q04DX003 (ip), vehicle: saline 104 % of control | dose: 16.0 mg/kg/injection, schedule: Q04DX003 (ip), vehicle: saline 118 % of control

CN(C)c1ccc(/C=N/NC(=O)CNC(=O)c2ccccc2)cc1
inactive: [7] 94 % of control | [8] 92 % of control | [9] 96 % of control

COC(C)(C)[CH]([Hg][Cl])n1ccccc1=O (stereo unspecified)
inactive: dose: 6.25 mg/kg/injection, schedule: Q04DX003 (ip), vehicle: Klucel (hydroxypropylcellulose) (HPC) 100 % of control | dose: 12.5 mg/kg/injection, schedule: Q04DX003 (ip), vehicle: Klucel (hydroxypropylcellulose) (HPC) 93 % of control | dose: 25.0 mg/kg/injection, schedule: Q04DX003 (ip), vehicle: Klucel (hydroxypropylcellulose) (HPC) 99 % of control and 100 % of control

O=C(NC(=S)c1ccc(Br)cc1)Nc1ccccc1
inactive: dose: 2.5 mg/kg/injection, schedule: Q01DX009 (ip), vehicle: saline with Tween-80 90 % of control | dose: 5.0 mg/kg/injection, schedule: Q01DX009 (ip), vehicle: saline with Tween-80 103 % of control | dose: 10.0 mg/kg/injection, schedule: Q01DX009 (ip), vehicle: saline with Tween-80 88 % of control

CCOC(=O)CCC1=C(C)c2cc3[n-]c(cc4nc(cc5[n-]c(cc1n2)c(CCC(=O)OCC)c5C)C=C4C)cc3C.[Cu+2]
inactive: [10] 101 % of control | [11] 97 % of control | [12] 100 % of control

O=C(O)CSc1nc(-c2nc3ccccc3s2)cn1-c1ccc(F)cc1
inactive: [4] 106 % of control | [5] 106 % of control | [6] 100 % of control

N#CC(C#N)C(c1ccccc1)c1cccc2ccccc12 (stereo unspecified)
inactive: [13] 101 % of control | [14] 109 % of control | dose: 400.0 mg/kg/injection, schedule: Q01DX001 (ip), vehicle: Klucel (hydroxypropylcellulose) (HPC) 104 % of control

O=C(NC(Cc1ccc(Br)cc1)C(=O)O)c1ccc(Br)cc1 (stereo unspecified)
inactive: [10] 104 % of control | [11] 101 % of control | [12] 104 % of control

N#CC1=C(O)/C(=C\C=C\c2ccccc2)N(C(=O)c2ccccc2)C1=N
inactive: [7] 105 % of control | [8] 100 % of control | [9] 104 % of control

COC(=O)c1ccccc1N=Nc1ccc(N(CCCl)CCCl)cc1
inactive: dose: 50.0 mg/kg/injection, schedule: Q01DX001 (ip), vehicle: Klucel (hydroxypropylcellulose) (HPC) 112 % of control | [13] 108 % of control | [14] 113 % of control

[N-]=[N+]=Nc1nnc(-c2ccccc2)c(=O)[nH]1
inactive: [15] 101 % of control | [16] 101 % of control | [17] 96 % of control

CN(C)C(=S)S
inactive: [4] 102 % of control | [5] 100 % of control | [6] 105 % of control | dose: 400.0 mg/kg/injection, schedule: Q01DX009 (ip), vehicle: Klucel (hydroxypropylcellulose) (HPC) 114 % of control

O=C1c2ccccc2C(=O)c2c1ccc1nc(Cl)c(=O)[nH]c21
inactive: [7] 94 % of control | [8] 97 % of control | [9] 94 % of control

O=c1[nH]c2c(ccc3cccnc32)c2c1CCC2
inactive: dose: 12.5 mg/kg/injection, schedule: Q04DX003 (ip), vehicle: saline with Tween-80 98 % of control | dose: 25.0 mg/kg/injection, schedule: Q04DX003 (ip), vehicle: saline with Tween-80 95 % of control | dose: 50.0 mg/kg/injection, schedule: Q04DX003 (ip), vehicle: saline with Tween-80 98 % of control

CN1NC(c2ccccc2)NN(C)C1=O
inactive: dose: 50.0 mg/kg/injection, schedule: Q01DX005 (ip), vehicle: saline 97 % of control | dose: 100.0 mg/kg/injection, schedule: Q01DX005 (ip), vehicle: saline 99 % of control | dose: 200.0 mg/kg/injection, schedule: Q01DX005 (ip), vehicle: saline 106 % of control

O=C(C[n+]1ccccc1)c1ccccc1
inactive: dose: 12.5 mg/kg/injection, schedule: Q01DX009 (ip), vehicle: saline 105 % of control | dose: 25.0 mg/kg/injection, schedule: Q01DX009 (ip), vehicle: saline 104 % of control | dose: 50.0 mg/kg/injection, schedule: Q01DX009 (ip), vehicle: saline 96 % of control

ClCCc1ccn[nH]1
inactive: [15] 97 % of control | [16] 99 % of control

COC(=O)C1=C/N(C)CCC/C(C(N)=O)=C\1
inactive: [10] 89 % of control | [11] 102 % of control | [12] 94 % of control

O=C(/C=C\c1ccccc1)c1ccccc1
inactive: [15] 112 % of control | [16] 110 % of control | [17] 102 % of control

C(=NCCCN=CC1CCCC[N-]1)C1CCCC[N-]1.[Cu+2].[O-][Cl+3]([O-])([O-])O (stereo unspecified)
inactive: dose: 3.12 mg/kg/injection, schedule: Q01DX009 (ip), vehicle: saline with Tween-80 103 % of control | [18] 101 % of control | [19] 103 % of control and 112 % of control | [20] 103 % of control

NC(=S)Nc1cccc2ccccc12
inactive: [18] 100 % of control and 112 % of control | [19] 113 % of control and 94 % of control | [20] 104 % of control and 91 % of control | dose: 50.0 mg/kg/injection, schedule: Q01DX009 (ip), vehicle: saline with Tween-80 94 % of control

CCN(c1ccccc1)c1cc(=O)nc2ccccn12
inactive: dose: 60.0 mg/kg/injection, schedule: Q01DX005 (ip), vehicle: saline 107 % of control | dose: 120.0 mg/kg/injection, schedule: Q01DX005 (ip), vehicle: saline 105 % of control | dose: 240.0 mg/kg/injection, schedule: Q01DX005 (ip), vehicle: saline 104 % of control

C=CCN=C(NC#N)SC
inactive: [4] 103 % of control | [5] 111 % of control

C(=C\c1cc2ccc(C3=NCCN3)cc2[nH]1)/c1ccc(Oc2ccc(C3=NCCN3)cc2)cc1
inactive: dose: 3.12 mg/kg/injection, schedule: Q04DX003 (ip), vehicle: saline 108 % of control | dose: 6.25 mg/kg/injection, schedule: Q04DX003 (ip), vehicle: saline 103 % of control | dose: 12.5 mg/kg/injection, schedule: Q04DX003 (ip), vehicle: saline 111 % of control | dose: 25.0 mg/kg/injection, schedule: Q04DX003 (ip), vehicle: saline 120 % of control

CC12CCC3(CC(=O)C1CCC2O)OCCO3 (stereo unspecified)
inactive: [4] 107 % of control | [5] 103 % of control | [6] 116 % of control
